Reference: publication PMC10424176, “Chamelogk: A Chromatographic Chameleonicity Quantifier to Design Orally Bioavailable Beyond-Rule-of-5 Drugs” (Journal of Medicinal Chemistry, 2023)

How the values were obtained:
[1] = Chamelogk, chromatographic chameleonicity descriptor (PLRP-S RP-HPLC); assay type: physicochemical; conditions: Exp. minus Ext. log k' PLRP-S at 100% MeCN, linear fit at 50, 60, 70% MeCN, 20 mM ammonium acetate pH 7.0, 30 °C
[2] = log kW^IAM and Δ log kW^IAM (IAM chromatography); assay type: physicochemical; conditions: for log kW^IAM: IAM column, extrapolated to 100% buffer from 10 to 50% MeCN, pH 7.0; for Δ log kW^IAM: polarity, from log kW^IAM and BRlogD (eq 4, 5)
Description: The mobile phases for every descriptor consisted of isocratic solutions of 20 mM ammonium acetate at pH 7.0 and acetonitrile at various percentages (see the specific descriptor). Small amounts of the 55 compounds were dissolved in buffer/acetonitrile mixtures (v/v) at concentrations ranging from 50 to 100 μg/mL. Subsequently, 10 μL of each solution (injection volume) was injected at an isocratic flow rate of 1 mL/min and analyzed at 30 °C (oven temperature). Chromatographic measurements were then analyzed in duplicate based on the specific chromatographic conditions of each descriptor. […] The retention times of the samples were recorded, and the capacity factor was calculated for each mobile phase condition adapting eq 2, where t0 is the retention time of citric acid.

physchem = assay type: physicochemical; conditions: pH 7
Description: The mobile phases for every descriptor consisted of isocratic solutions of 20 mM ammonium acetate at pH 7.0 and acetonitrile at various percentages (see the specific descriptor). Small amounts of the 55 compounds were dissolved in buffer/acetonitrile mixtures (v/v) at concentrations ranging from 50 to 100 μg/mL. Subsequently, 10 μL of each solution (injection volume) was injected at an isocratic flow rate of 1 mL/min and analyzed at 30 °C (oven temperature). Chromatographic measurements were then analyzed in duplicate based on the specific chromatographic conditions of each descriptor.
BRlogD[39] required the injection of 55 samples into the X-Bridge column at 60% MeCN (predominant mobile phase constituent). The retention times and dead time (t0, baseline interference) were recorded, and the capacity factor log k’60 was calculated adapting eq 2. Lastly, BRlogD value was calculated from eq 3 [drawing 3] 3

[3] = cited from earlier work

Compound	Chamelogk [1]	further results
Brc1cnc2ccccc2c1 [3-bromoquinoline]	0.13	
O=C1CCC(N2C(=O)c3cccc(F)c3C2=O)C(=O)N1 (centres unmarked) [4-F-thalidomide]	0.23	
O=C1CCC(N2C(=O)c3cccc(O)c3C2=O)C(=O)N1 (centres unmarked) [4-hydroxy thalidomide]	–0.16	
CCCN1C(=O)c2ccc(Cl)cc2Nc2ncccc21 [BI-0115]	0.19	
COc1cc(C(=O)NCCOCCOCCOCC(=O)N[C@H](C(=O)N2C[C@H](O)C[C@H]2C(=O)NCc2ccc(-c3scnc3C)cc2)C(C)(C)C)ccc1Nc1ncc(C(F)(F)F)c(Oc2cccc3c2C(=O)CC3)n1 [BI-0319]	0.99	
CCN1C(=O)c2cc(C)ccc2Nc2ncccc21 [BI-1580]	0.1	
COc1cc(C(=O)NCCOCCOCCOCCC(=O)Nc2cccc3c2C(=O)N(C2CCC(=O)NC2=O)C3=O)ccc1Nc1ncc(C(F)(F)F)c(Oc2cccc3c2C(=O)CC3)n1 (centres unmarked) [BI-3663]	0.5	
COc1cc(C(=O)NCCOCCOCCOCC(=O)N[C@H](C(=O)N2C[C@@H](O)C[C@H]2C(=O)NCc2ccc(-c3scnc3C)cc2)C(C)(C)C)ccc1Nc1ncc(C(F)(F)F)c(Oc2cccc3c2C(=O)CC3)n1 [BI-4206]	0.7	
CC(=O)N[C@H](C(=O)N1C[C@H](O)C[C@H]1C(=O)NCc1ccc(-c2scnc2C)cc1)C(C)(C)SCCCCCCNC(=O)C[C@@H]1N=C(c2ccc(Cl)cc2)c2c(sc(C)c2C)-n2c(C)nnc21 [BRD4 degrader AT1]	1.26	
Cc1sc2c(c1C)C(c1ccc(Cl)cc1)=NC(CC(N)=O)c1nnc(C)n1-2 (centres unmarked) [CPI203]	0.54	
Cc1ncsc1-c1ccc(CNC(=O)[C@@H]2C[C@@H](O)CN2C(=O)[C@@H](NC(=O)CCCCOCCCCCOCCCCCCNc2cccc3c2C(=O)N(C2CCC(=O)NC2=O)C3=O)C(C)(C)C)cc1 (some centres unmarked) [CRBN-6-5-5-VHL]	1.05	
CCn1nc(C2CC2)cc1Nc1nc(C(=O)NC)nc2[nH]c3cc(-c4c(C)noc4C)c(OC)cc3c12 [HJB97]	0.15	
COC(=O)C[C@@H]1N=C(c2ccc(Cl)cc2)c2c(sc(C)c2C)-n2c(C)nnc21 [MS-417]	0.29	
CC(=O)N1c2ccc(-c3ccc(C(=O)NCCOCCOCCOCC(=O)N[C@H](C(=O)N4C[C@H](O)C[C@H]4C(=O)NCc4ccc(-c5scnc5C)cc4)C(C)(C)C)cc3)cc2[C@H](Nc2ccc(Cl)cc2)C[C@@H]1C [MZP-54]	1.18	
Cc1ncsc1-c1ccc(CNC(=O)[C@@H]2C[C@@H](O)CN2C(=O)[C@@H](NC(=O)C2(C#N)CC2)C(C)(C)C)c(O)c1 [OH-VH298 (S,R,S)]	0.48	
Cc1sc2c(c1C)C(c1ccc(Cl)cc1)=N[C@@H](CC(=O)Nc1ccc(O)cc1)c1nnc(C)n1-2 [OTX-015]	0.64	
Nc1ccc(OCCOCCOCCOCCNc2cccc3c2C(=O)N(C2CCC(=O)NC2=O)C3=O)cc1 (centres unmarked) [PEG4-PH-NH2-pomalidomide]	0.12	
Cc1sc2c(c1C)C(c1ccc(Cl)cc1)=N[C@@H](CC(=O)NCCCCCC(=O)NCc1cccc3c1C(=O)N(C1CCC(=O)NC1=O)C3=O)c1nnc(C)n1-2 (some centres unmarked) [PROTAC BET degrader-10]	0.83	
Cc1ncsc1-c1ccc(CNC(=O)[C@@H]2C[C@@H](O)CN2C(=O)[C@@H](NC(=O)CCOCCOc2ccc(Nc3ncc(C(F)(F)F)c(NCc4cccc(N(C)S(C)(=O)=O)c4)n3)cc2)C(C)(C)C)cc1 [PROTAC FAK degrader-1]	0.79	
O=C(CCCCC(=O)NCCN1C(=O)c2cccc3c(Sc4ccc(Br)cc4)ccc(c23)C1=O)NCCCCCCNc1cccc2c1C(=O)N(C1CCC(=O)NC1=O)C2=O (centres unmarked) [PROTAC Mcl degrader-1]	0.93	
Cc1ncsc1-c1ccc(CNC(=O)[C@@H]2C[C@@H](O)CN2C(=O)[C@@H](NC(=O)COCCOCCNC(=O)COc2cnc3c(C4CCN(C(=O)c5ccc(OC(F)(F)F)cc5)CC4)ncnc3c2)C(C)(C)C)cc1 [PROTAC-1]	1.07	

Compound	Chamelogk [1]	further results
COC(=O)C[C@@H]1N=C(c2ccc(Cl)cc2)c2c(sc(C(=O)NCCCCCNc3cccc4c3C(=O)N(C3CCC(=O)NC3=O)C4=O)c2C)-n2c(C)nnc21 (some centres unmarked) [ZXH-3-26]	0.65	
CC(C)=O [acetone]	–0.13	
c1ccc(-c2ccc(C(c3ccccc3)n3ccnc3)cc2)cc1 (centres unmarked) [bifonazole]	0.45	
Cc1ncsc1-c1ccc(CNC(=O)[C@@H]2C[C@H](O)CN2C(=O)[C@@H](NC(=O)C2(C#N)CC2)C(C)(C)C)c(O)c1 [cis-OH-VH298 (S,S,S)]	0.45	
CC(=O)N[C@H](C(=O)N1C[C@@H](O)C[C@H]1C(=O)NCc1ccc(-c2scnc2C)cc1O)C(C)(C)C [cis-phenol-VH032 (S,S,S)]	0.65	
Clc1ccccc1C(c1ccccc1)(c1ccccc1)n1ccnc1 [clotrimazole]	0.71	
Cc1sc2c(c1C)C(c1ccc(Cl)cc1)=N[C@@H](CC(=O)NCCCCNC(=O)COc1cccc3c1C(=O)N(C1CCC(=O)NC1=O)C3=O)c1nnc(C)n1-2 (some centres unmarked) [dBET1]	0.8	
Cc1sc2c(c1C)C(c1ccc(Cl)cc1)=N[C@@H](CC(=O)NCCCCCCCCNC(=O)COc1cccc3c1C(=O)N(C1CCC(=O)NC1=O)C3=O)c1nnc(C)n1-2 (some centres unmarked) [dBET6]	0.86	
CN1C(=O)CN=C(c2ccccc2)c2cc(Cl)ccc21 [diazepam]	0.30	Chamelogk ([1]; listed as Diazepam): 0.3
CC/C(=C(/CC)c1ccc(O)cc1)c1ccc(O)cc1 [diethylstilbestrol]	0.44	
CO[C@H]1C[C@@H]2CC[C@@H](C)[C@@](O)(O2)C(=O)C(=O)N2CCCC[C@H]2C(=O)O[C@H]([C@H](C)C[C@@H]2CC[C@@H](OCCO)[C@H](OC)C2)CC(=O)[C@H](C)/C=C(\C)[C@@H](O)[C@@H](OC)C(=O)[C@H](C)C[C@H](C)/C=C/C=C/C=C/1C [everolimus]	0.45	log kW^IAM [2]: 4.15; Δ log kW^IAM [2]: 0.71; chromatographic logD (physchem): 4.86; ChameLogD [3]: 1.7
COc1cc2ncnc(Nc3ccc(F)c(Cl)c3)c2cc1OCCCCCOCCOCCC(=O)N[C@H](C(=O)N1C[C@H](O)C[C@H]1C(=O)NCc1ccc(-c2scnc2C)cc1)C(C)(C)C [gefitinib-based PROTAC 3]	1.36	
C[C@]12CCC(=O)C=C1CC[C@@H]1[C@@H]2[C@@H](O)C[C@@]2(C)[C@H]1CC[C@]2(O)C(=O)CO [hydrocortisone]	0.10	Chamelogk ([1]; listed as Hydrocortisone): 0.1
c1ccc2ccccc2c1 [naphthalene]	0.02	
CC(=O)O[C@H]1C(=O)[C@@]2(C)[C@H]([C@H](OC(=O)c3ccccc3)[C@]3(O)C[C@H](OC(=O)[C@H](O)[C@@H](NC(=O)c4ccccc4)c4ccccc4)C(C)=C1C3(C)C)[C@]1(OC(C)=O)CO[C@@H]1C[C@@H]2O [paclitaxel]	0.15	
CC(=O)N[C@H](C(=O)N1C[C@H](O)C[C@H]1C(=O)NCc1ccc(-c2scnc2C)cc1O)C(C)(C)C [phenol-VH032 (S,R,S)]	0.37	
Oc1ccccc1 [phenol]	0.16	
CC[C@@H]1/C=C(\C)C[C@H](C)C[C@H](OC)[C@H]2O[C@@](O)(C(=O)C(=O)N3CCCC[C@H]3C(=O)O[C@H](/C(C)=C/[C@@H]3CC[C@H](Cl)[C@H](OC)C3)[C@H](C)[C@@H](O)CC1=O)[C@H](C)C[C@@H]2OC [pimecrolimus]	0.43	log kW^IAM [2]: 3.35; Δ log kW^IAM [2]: -1.62; chromatographic logD (physchem): 6.52
Nc1cccc2c1C(=O)N(C1CCC(=O)NC1=O)C2=O (centres unmarked) [pomalidomide]	0.00	Chamelogk ([1]; listed as Pomalidomide): 0
CO[C@H]1C[C@@H]2CC[C@@H](C)[C@@](O)(O2)C(=O)C(=O)N2CCCC[C@H]2C(=O)O[C@H]([C@H](C)C[C@@H]2CC[C@@H](OC(=O)C(C)(CO)CO)[C@H](OC)C2)CC(=O)[C@H](C)/C=C(\C)[C@@H](O)[C@@H](OC)C(=O)[C@H](C)C[C@H](C)/C=C/C=C/C=C/1C [temsirolimus]	0.23	ChameLogD [3]: 2
C=C/C=C/C[C@@H](C)[C@@H](O)[C@H]1C(=O)N[C@@H](CC)C(=O)N(C)CC(=O)N(C)[C@@H](CC(C)C)C(=O)N[C@@H](C(C)C)C(=O)N(C)[C@@H](CC(C)C)C(=O)N[C@@H](C)C(=O)N[C@H](C)C(=O)N(C)[C@@H](CC(C)C)C(=O)N(C)[C@@H](CC(C)C)C(=O)N(C)[C@@H](C(C)C)C(=O)N1C [voclosporin]	1.15	
